Results reported in patent US7964628B2, “Fibrinogen receptor antagonists and their use” (Piramal Life Sciences Limited, priority 2003, dated 2011).

How the values were obtained:
[1] = tested on: ADP-induced human platelet aggregation; test: Inhibition of platelet aggregation in human PRP (ADP-induced); assay type: cell-based; details: 0.05 h, 3 min at 37° C., ADP 5-15 μM final concentration
Procedure: Human blood (150 ml) was collected from the ante-cubital vein of normal healthy volunteers (who were not on any medication for the past two weeks), into a siliconized glass bottle containing 25 ml of acid-citrate-dextrose (ACD) solution and 10 units of hirudin. The blood was immediately centrifuged at 200×g for 20 min at room temperature. Platelet-rich plasma (PRP) was separated and the platelet count read using a Beckman Coulter A^cT diff Counter. The tubes were centrifuged again at 2000×g for 10 min at room temperature, to get platelet-free plasma (PFP). The platelet count of PRP was adjusted to 3×10^8 platelets/ml by appropriate dilution with PFP. All in vitro experiments were conducted using PRP with adjusted number of platelets.
Inhibition of Platelet Aggregation in Human PRP (Born, G. V. R.; Cross, M. J., J. Physiol, 1963, 168, 175)
PRP was incubated with different concentrations of the test compound for 3 min at 37° C. Platelet aggregation was then induced by the addition of ADP (5-15 μM final concentration). Percent inhibition of platelet aggregation was then calculated by comparing test aggregation values with control values (Table 1).

Row | SMILES | IC50 [1] [nM] | melting point [°C]
1 | CC(C)COC(=O)COc1ccc(C(=O)CN2Cc3cc(C(=N)N)ccc3C2=O)cc1OCC(=O)OCC(C)C [Example 24, (4-{2-[5-Carbamimidoyl-1-oxo-1,3-dihydro-isoindol-2-yl]-acetyl}-2-isobutoxycarbonylmethoxy-phenoxy)acetic acid isobutyl ester] | 6 | 
2 | CCOC(=O)COc1ccc(C(=O)CN2Cc3cc(C(=N)N)ccc3C2=O)cc1 [Example 3, (4-{2-[5-Carbamimidoyl-1-oxo-1,3-dihydro-isoindol-2-yl]-acetyl}-phenoxy)-acetic acid ethyl ester] | 93 | 185 to 187
3 | CCOC(=O)COc1ccc(C(=O)CN2Cc3cc(C(=N)N)ccc3C2=O)cc1OCC(=O)OCC [Example 20, (4-{2-[5-Carbamimidoyl-1-oxo-1,3-dihydro-isoindol-2-yl]-acetyl}-2-ethoxycarbonylmethoxy-phenoxy)-acetic acid ethyl ester] | 50 | 
